Data reported in ChEMBL document CHEMBL1201862, “PubChem BioAssay data set” (2004).
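Five concentrations, 48 hours, 96-well plates. GI50 = concentration required for 50% inhibition of growth.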 Calls of active or inactive are those of the source. Rule as the data show it: active = GI50 up to about 1.1 µM and inactive = higher.

Legend:
Test in all cases: DTP human tumour cell line panel, 48 h
A549 = test system: A549
ACHN = test system: ACHN
COLO 205 = test system: COLO 205
EKVX = test system: EKVX
HCC 2998 = test system: HCC 2998
HCT-15 = test system: HCT-15
Hs-578T = test system: Hs-578T
IGROV-1 = test system: IGROV-1
MDA-N = test system: MDA-N
NCI-H522 = test system: NCI-H522
OVCAR-3 = test system: OVCAR-3
OVCAR-4 = test system: OVCAR-4
RPMI-8226 = test system: RPMI-8226
SF-295 = test system: SF-295
SK-MEL-28 = test system: SK-MEL-28
SK-MEL-2 = test system: SK-MEL-2
SK-MEL-5 = test system: SK-MEL-5
U-251 = test system: U-251
HL-60 = test system: HL-60

SMILES	GI50 (A549)	GI50 (ACHN)	GI50 (COLO 205)	GI50 (EKVX)	GI50 (HCC 2998)	GI50 (HCT-15)	GI50 (Hs-578T)	GI50 (IGROV-1)	GI50 (MDA-N)	GI50 (NCI-H522)	GI50 (OVCAR-3)	GI50 (OVCAR-4)	GI50 (RPMI-8226)	GI50 (SF-295)	GI50 (SK-MEL-28)	GI50 (SK-MEL-2)	GI50 (SK-MEL-5)	GI50 (U-251)	GI50 (HL-60)
CC(=O)Oc1ccc(/C=C/C(=O)NCC(NC(=O)/C=C/c2ccc(OC(C)=O)c(OC(C)=O)c2)C(=O)O)cc1OC(C)=O (stereo not drawn)	> 100 µM (inactive)	> 100 µM (inactive)	> 100 µM (inactive)	> 100 µM (inactive)	> 100 µM (inactive)	> 100 µM	> 100 µM (inactive)	> 100 µM (inactive)	> 100 µM (inactive)	46.8 µM (inactive)	> 100 µM (inactive)	> 100 µM (inactive)	> 100 µM (inactive)	> 100 µM (inactive)	> 100 µM (inactive)	> 100 µM (inactive)	> 100 µM (inactive)	> 100 µM (inactive)	–
CCOc1cc(NC(C)=O)ccc1C(=O)NN1C(=O)CSC1c1ccc(O)c(OC)c1 (stereo not drawn)	38.9 µM (inactive)	51.4 µM (inactive)	33.1 µM (inactive)	42.7 µM (inactive)	32.1 µM (inactive)	40.8 µM	82.4 µM (inactive)	60.4 µM (inactive)	54.7 µM (inactive)	37.8 µM (inactive)	58.7 µM (inactive)	39.9 µM (inactive)	40.4 µM (inactive)	50.8 µM (inactive)	84.5 µM (inactive)	49 µM (inactive)	52.1 µM (inactive)	–	41.5 µM (inactive)
CCOC(=O)c1c(CN2CCCC2)n(-c2ccccc2)c2cc(Br)c(OC)cc12	7.35 µM (inactive)	11.1 µM (inactive)	11.8 µM (inactive)	20 µM (inactive)	–	14.4 µM	29.9 µM (inactive)	16.5 µM (inactive)	29.3 µM (inactive)	13.7 µM (inactive)	24.9 µM (inactive)	33.4 µM (inactive)	12.8 µM (inactive)	14.8 µM (inactive)	15.6 µM (inactive)	18 µM (inactive)	12.3 µM (inactive)	16.1 µM (inactive)	12.5 µM (inactive)
O=C1/C(=C2\Sc3c(ccc(Cl)c3Cl)C2=O)Sc2c1ccc(Cl)c2Cl	> 100 µM (inactive)	> 100 µM (inactive)	> 100 µM (inactive)	> 100 µM (inactive)	> 100 µM (inactive)	> 100 µM	> 100 µM (inactive)	> 100 µM (inactive)	> 100 µM (inactive)	> 100 µM (inactive)	12.5 µM (inactive)	> 100 µM (inactive)	> 100 µM (inactive)	33.1 µM (inactive)	> 100 µM (inactive)	> 100 µM (inactive)	> 100 µM (inactive)	> 100 µM (inactive)	–
O=C1C(Cl)C2(CC(/C=C/c3ccccc3Cl)=NN2c2cccc(S(=O)(=O)O)c2)N1c1nc2ccccc2s1 (stereo not drawn)	72.1 µM (inactive)	42.7 µM (inactive)	> 100 µM (inactive)	49 µM (inactive)	85.9 µM (inactive)	15.8 µM	81.8 µM (inactive)	26.9 µM (inactive)	46 µM (inactive)	12.6 µM (inactive)	–	29.1 µM (inactive)	9.29 µM (inactive)	–	> 100 µM (inactive)	> 100 µM (inactive)	21.4 µM (inactive)	41.7 µM (inactive)	6.67 µM (inactive)
Cc1ccc(S(=O)(=O)NNC(=S)Nc2cccc3ccccc23)cc1	49.4 µM (inactive)	29.9 µM (inactive)	36.8 µM (inactive)	38.3 µM (inactive)	53.8 µM (inactive)	67.5 µM	97.5 µM (inactive)	61.5 µM (inactive)	55.3 µM (inactive)	16.7 µM (inactive)	–	22.3 µM (inactive)	37.4 µM (inactive)	34.7 µM (inactive)	54.1 µM (inactive)	4.45 µM (inactive)	17.8 µM (inactive)	40.6 µM (inactive)	28.3 µM (inactive)
CC1(C)OC(=O)CC12CCN(Cc1ccccc1)CC2	> 100 µM (inactive)	> 100 µM (inactive)	> 100 µM (inactive)	> 100 µM (inactive)	–	> 100 µM	> 100 µM (inactive)	> 100 µM (inactive)	> 100 µM (inactive)	> 100 µM (inactive)	> 100 µM (inactive)	> 100 µM (inactive)	> 100 µM (inactive)	> 100 µM (inactive)	> 100 µM (inactive)	> 100 µM (inactive)	> 100 µM (inactive)	> 100 µM (inactive)	> 100 µM (inactive)
COC(=O)c1cc(CC2Cc3cc4c(cc3C2=O)CCC4)cc2c1CCC2 (stereo not drawn)	> 100 µM (inactive)	> 100 µM (inactive)	93.3 µM (inactive)	> 100 µM (inactive)	> 100 µM (inactive)	> 100 µM	24.8 µM (inactive)	> 100 µM (inactive)	70.6 µM (inactive)	54.3 µM (inactive)	> 100 µM (inactive)	33.2 µM (inactive)	> 100 µM (inactive)	35.1 µM (inactive)	> 100 µM (inactive)	63.7 µM (inactive)	–	> 100 µM (inactive)	> 100 µM (inactive)
